The source of these data is publication PMC9953468, “In Silico, In Vitro, and Ex Vivo Biological Activity of Some Novel Mebeverine Precursors” (Biomedicines, 2023).

Read-outs that look alike come from different tables or passages of the source. A value given as a limit tells only on which side of the number the result lay.

Data set [1] relates to Eighteen tested microorganisms (Gram-positive bacteria, Gram-negative bacteria, yeasts, fungi). Put plainly: Antimicrobial activity, agar well diffusion method, whole panel. It is filed as cell-based. Conditions: whole panel of tested microorganisms, in words. The text has this: Eighteen tested microorganisms including five Gram-positive bacteria (Bacillus subtilis ATCC 6633, Bacillus amyloliquefaciens 4BCL-YT, Staphylococcus aureus ATCC 25923, Listeria monocytogenes NBIMCC 8632, Enterococcus faecalis ATCC 19433), five Gram-negative bacteria (Salmonella enteritidis ATCC 13076, Klebsiella sp.—clinical isolate, Escherichia coli ATCC 25922, Proteus vulgaris ATCC 6380, Pseudomonas aeruginosa ATCC 9027), two yeasts (Candida albicans NBIMCC 74, Saccharomyces cerevisiae ATCC 9763) and six fungi (Aspergillus niger ATCC 1015, Aspergillus flavus, Penicillium sp., Rhizopus sp., Mucor sp.—plant isolates, Fusarium moniliforme ATCC 38932) from the collection of the Department of Microbiology at the University of Food Technologies—Plovdiv, Bulgaria, were selected for the antimicrobial activity test.
The antimicrobial activity of the samples was determined by the agar well diffusion method. The tested bacteria B. subtilis and B. amyloliquefaciens were cultured on LBG agar at 30 °C. The test bacteria S. aureus, L. monocytogenes, E. faecalis, S. enteritidis, Klebsiella sp., E. coli, P. vulgaris and P. aeruginosa were cultured on LBG agar at 37 °C for 24 h. The yeast C. albicans was cultured on MEA at 37 °C, while S. cerevisiae was cultured on MEA at 30 °C for 24 h. The fungi A. niger, A. flavus, Penicillium sp., Rhizopus sp., Mucor sp., and F. moniliforme were grown on MEA at 30 °C for 7 days or until sporulation.
The inocula of the tested bacteria/yeasts were prepared by homogenization of a small amount of biomass in 5 mL of sterile 0.5% NaCl. […] The number of viable cells and fungal spores was determined using a bacterial counting chamber Thoma (Poly-Optik, GmbH, Bad Blankenburg, Germany). […] Next, the inoculated media were transferred in a quantity of 18 mL in sterile Petri plates (d = 90 mm) (Gosselin™, Hazebrouck, France) and allowed to harden. […]
The antimicrobial activity was determined by measuring the diameter of the inhibition zones around the wells on the 24th and 48th h of incubation. […]
In general terms: In agar diffusion tests the substance spreads into inoculated agar from a disc or well.

A short description of data set [2]: MTT cell viability assay. It counts as cell-based. Conditions: mouse, CCL-1, normal murine fibroblast cells, read-out: In vitro cytotoxicity (IC50). The method, then:
(§1) In order to evaluate the in vitro biocompatibility of the experimental compounds, a series of cell viability assays were performed against human malignant leukemic cell lines (LAMA-84, K-562) as well as normal murine fibroblast cells (CCL-1). All cell lines were purchased from the German Collection of Microorganisms and Cell Cultures (DSMZ GmbH, Braunschweig, Germany). Cell cultures were cultivated in a growth medium RPMI 1640 supplemented with 10% fetal bovine serum (FBS), 5% L-glutamine, and incubated under standard conditions of 37 °C and 5% humidified CO2 atmosphere.
(§2) The experimental design involved a number of cytotoxicity assays that measured cell growth inhibition by the newly synthesized compounds. Cell viability was evaluated using a standard MTT-based colorimetric assay. Exponential-phased cells were harvested and seeded (100 μL/well) in 96-well plates at the appropriate density (3 × 10^5) for the suspension cultures (LAMA-84 and K-562) and 1.5 × 10^5 for the adherent one (CCL-1). Cells were treated and incubated with various concentrations of the experimental compounds in the concentration range of 400-6.25 µM. After exposure time of 72 h, a filter-sterilized MTT substrate solution (5 mg/mL in PBS) was added to each well of the culture plate. A further 1–4 h incubation allowed for the formation of purple insoluble formazan precipitates. The latter were dissolved in isopropyl alcohol solution containing 5% formic acid prior to absorbance measurement at 550 nm using a microplate reader (Labexim LMR-1). Collected absorbance values were blanked against MTT and isopropanol solution and normalized to the mean value of the untreated control (100% cell viability). Semi-logarithmic “dose–response” curves were constructed and the half-inhibitory concentrations of the screened compounds against each tested cell line were calculated. Values of p ≤ 0.05 were considered statistically significant.
(In general: Formazan colour is commonly taken as a measure of viable cells.)

Data set [3] can be described thus: MTT cell viability assay. It counts as cell-based, human. Conditions: human, ± SD, read-out: In vitro cytotoxicity (IC50). The procedure: as §1, §2
Where [4] appears, read: LAMA-84, CML in blast crisis (bcr-abl+).

Broadly, the IC50 is the point on the concentration scale where inhibition reaches its midpoint. `CC(C)C(N)Cc1ccccc1` (centres unmarked) [Compound 3, 3-Methyl-1-phenylbutan-2-amine]: the antimicrobial activity entry in data set [1] was “only modest activity against Gram-negative bacteria”. In addition, the IC50 at 72 h in the data set “MTT cell viability assay [2]” is more than 300 µM; in the data set “MTT cell viability assay [3]” (K-562, Blast phase CML (bcr-abl+)), 250 ± 10.5 µM; in “MTT cell viability assay [3]” (setting [4]), 239 ± 18.2 µM.
`CC(=O)NC(Cc1ccccc1)C(C)C` (centres unmarked) [Compound 4a, N-(3-methyl-1-phenylbutan-2-yl)acetamide]: in data set [1], the antimicrobial activity result is reported as “inhibited only the growth of Escherichia coli”. For the same compound, the IC50 at 72 h in “MTT cell viability assay [2]” (CCL-1 normal fibroblast cells) was more than 300 µM; in “MTT cell viability assay [3]” (K-562 cells (blast phase chronic myeloid leukemia), K-562, Blast phase CML (bcr-abl+)) it was 276 ± 19.7 µM; in “MTT cell viability assay [3]” (setting [4]) it was 360 ± 11 µM.
